Data as given in article PMC11111408, “Concurrent inhibition of oncogenic and wild-type RAS-GTP for cancer therapy” (Nature, 2024).
Values joined by “and” are separate entries in the source; they are usually repeats but may differ in a detail not shown here. Identical values can stand only once.

Experiments:
HRAS WT = HRAS WT (Homo sapiens, UniProt P01112+P62937); experiment: RAS binding affinity of compound-bound CYPA (Kd2), SPR; details: steady state SPR, (95% CI)
A375 cells = experiment: Cell proliferation (CTG); format: cell-based, human
Method: (§1) Alternatively, cells were seeded in round-bottom ultra-low attachment 96-well plates, centrifuged at 1,000 rpm for 10 min to pellet the cells, and incubated overnight or up to 72 h to allow for 3D spheroid formation. […] Cell viability was determined by CellTiter-Glo 2.0 reagent (2D CTG) (Promega, G9243) or 3D CellTiter-Glo reagent (3D CTG) (Promega, G9683) according to the manufacturer’s protocols. Luminescence was detected using a SpectraMax M5 Plate Reader (Molecular Devices) of Perkin Elmer Enspire. Luminescence signal was normalized to vehicle-treated wells (normalized signal (%) = (luminescence (treated)/mean luminescence (vehicle)) × 100%). […] Data were plotted as log [inhibitor (M)], and a four-parameter sigmoidal concentration response model was fitted to the data to calculate EC50. […] Pa16C MEK1 mutant cells were evaluated by live-cell counting using Calcein AM and a SpectraMax i3X multi-mode detection platform (Molecular Devices). Growth percentages were calculated by normalizing the treated cell counts to their respective untreated cell counts.

[1] = system: NCI-H358 cells (CYPA-high, CYPA-low); experiment: Proliferation (CTG) of NCI-H358 cells with low or high CYPA; format: cell-based, human
Method: Data points show biological duplicates normalized to vehicle control. […] Data points show biological duplicates normalized to vehicle control from 1 of 2–26 independent experiments. Source Data
as §1

[2] = Body weight and tolerability of tumour bearing mice; details: for % Body Weight Change: 10 mg/kg po qd, 10 mg/kg
Method: All datapoints shown, n = 3 per dose and timepoint.
Female BALB/c nude mice, NOD SCID and NSG mice 6-8 weeks old from Beijing Vital River/VR Laboratory Animal Co., LTD, Beijing AniKeeper Biotech Co., Ltd., Shanghai Sino-British SIPPR/BK Laboratory Animal Co., LTD and The Jackson Laboratory were used. Animals were housed in polycarbonate cages, in an environmentally monitored, well ventilated room maintained at a constant temperature of 20-26°C and relative humidity of 40-80%. Fluorescent lighting provided illumination approximately 12 hours per day. Each mouse was inoculated at the right flank with tumor cells (2x10^6-1x10^7) in 100-200 µL of media/PBS supplemented with Matrigel (1:1). Treatments were started when the average tumor size reached 100-250 mm^3. […] Mice on studies were weighed and tumor measurements collected twice weekly. […] For efficacy study, Animals were assigned to study groups using stratified randomization based upon their tumor volumes (n=3-10/group). […] Animals were treated for 28 days (or up to 110 for selected models) or an earlier time if tumor burden reached humane endpoint. […] Body weights were collected twice a week during the study.

KRAS WT = KRAS WT (Homo sapiens, UniProt P01116+P62937); experiment: Biochemical RAS–RAF (BRAF RBD) disruption, TR-FRET; parameters: made in house; host or cells: BL21(DE3) Escherichia coli
From the text: (§2) Time-resolved fluorescence resonance energy transfer (TR-FRET) was used as previously described to assess disruption of the interactions between wild-type RAS or the mutant oncogenic RAS proteins and the RAS-binding domain of BRAF, and to assess the induction of interactions between the RAS proteins and CYPA[12].

KRAS^G12D = KRAS^G12D (Homo sapiens, UniProt P01116+P62937, G12D); experiment: Biochemical RAS–RAF (BRAF RBD) disruption, TR-FRET; parameters: made in house; host or cells: BL21(DE3) Escherichia coli; details: (95% CI)
From the text: as §2

KRAS^G12R = KRAS^G12R (Homo sapiens, UniProt P01116+P62937, G12R); experiment: Biochemical RAS–RAF (BRAF RBD) disruption, TR-FRET; parameters: made in house; host or cells: BL21(DE3) Escherichia coli; details: (95% CI)
From the text: as §2

KRAS^G12C = KRAS^G12C (Homo sapiens, UniProt P01116+P62937, G12C); experiment: Biochemical RAS–RAF (BRAF RBD) disruption, TR-FRET; parameters: His6-TEV (N); made in house; host or cells: BL21(DE3) Escherichia coli
From the text: as §2

KRAS^G12V = KRAS^G12V (Homo sapiens, UniProt P01116+P62937, G12V); experiment: Biochemical RAS–RAF (BRAF RBD) disruption, TR-FRET; parameters: His6-TEV (N); made in house; host or cells: BL21(DE3) Escherichia coli
From the text: as §2

CCn1c(-c2cc(N3CCN(C4CC4)CC3)cnc2[C@H](C)OC)c2c3cc(ccc31)-c1csc(n1)C[C@H](NC(=O)[C@H]1[C@@H]3COC[C@@H]31)C(=O)N1CCC[C@H](N1)C(=O)OCC(C)(C)C2 [RMC-7977]
Kd (HRAS WT): 94.7 nM | inhibition of proliferation (A375 cells; A375, BRAF^V600E, RAS-independent): No inhibition | EC50 (A375 cells; Homo sapiens, A-375, A375, CTG, (95% CI)): 8830 nM | sensitivity of CYPA-high versus CYPA-low cells, inhibition of cell proliferation ([1]; NCI-H358, doxycycline-inducible CYPA, 120 h): eightfold | Proliferation, H358 CypA high (+ 0.1 µg/ml dox) ([1]; RMC-7977 0.0152 nM): 114.566 and 114.478 and 102.697 and 95.6358 | Proliferation, H358 CypA high (- dox) ([1]; RMC-7977 0.0152 nM): 114.881 and 112.875 and 101.544 and 96.9285 | Proliferation, H358 CypA low (+ 0.1 µg/ml dox) ([1]; RMC-7977 0.0152 nM): 109.975 and 111.873 and 103.465 and 96.8877 | Proliferation, H358 CypA low (- dox) ([1]; RMC-7977 0.0152 nM): 131.295 and 170.353 and 103.153 and 109.53 | Proliferation, H358 CypA high (+ 0.1 µg/ml dox) ([1]; RMC-7977 0.0457 nM): 102.073 and 87.0456 | Proliferation, H358 CypA high (- dox) ([1]; RMC-7977 0.0457 nM): 94.1146 and 92.3438 | Proliferation, H358 CypA low (+ 0.1 µg/ml dox) ([1]; RMC-7977 0.0457 nM): 104.393 and 103.775 | Proliferation, H358 CypA low (- dox) ([1]; RMC-7977 0.0457 nM): 101.295 and 103.944 | Proliferation, H358 CypA high (+ 0.1 µg/ml dox) ([1]; RMC-7977 0.41 nM): 40.4066 and 38.4296 | Proliferation, H358 CypA high (- dox) ([1]; RMC-7977 0.41 nM): 99.8914 and 99.4838 | Proliferation, H358 CypA low (+ 0.1 µg/ml dox) ([1]; RMC-7977 0.41 nM): 94.3293 and 90.7108 | Proliferation, H358 CypA low (- dox) ([1]; RMC-7977 0.41 nM): 110.992 and 108.667 | Proliferation, H358 CypA high (+ 0.1 µg/ml dox) ([1]; RMC-7977 3.70 nM): 4.175 and 3.964 | Proliferation, H358 CypA high (- dox) ([1]; RMC-7977 3.70 nM): 92.1373 and 96.6037 | Proliferation, H358 CypA low (+ 0.1 µg/ml dox) ([1]; RMC-7977 3.70 nM): 44.8323 and 42.163 | Proliferation, H358 CypA low (- dox) ([1]; RMC-7977 3.70 nM): 108.382 and 108.201 | Proliferation, H358 CypA high (+ 0.1 µg/ml dox) ([1]; RMC-7977 11.11 nM): 1.059 and 0.9033 | Proliferation, H358 CypA high (- dox) ([1]; RMC-7977 11.11 nM): 92.3418 and 100.036 | Proliferation, H358 CypA low (+ 0.1 µg/ml dox) ([1]; RMC-7977 11.11 nM): 22.8241 and 21.8177 | Proliferation, H358 CypA low (- dox) ([1]; RMC-7977 11.11 nM): 112.468 and 108.323 | Proliferation, H358 CypA high (+ 0.1 µg/ml dox) ([1]; RMC-7977 33.33 nM): 0.7359 and 0.8327 | Proliferation, H358 CypA high (- dox) ([1]; RMC-7977 33.33 nM): 92.8182 and 94.1066 | Proliferation, H358 CypA low (+ 0.1 µg/ml dox) ([1]; RMC-7977 33.33 nM): 11.066 and 10.8911 | Proliferation, H358 CypA low (- dox) ([1]; RMC-7977 33.33 nM): 104.142 and 111.18 | Proliferation, H358 CypA high (+ 0.1 µg/ml dox) ([1]; RMC-7977 100.00 nM): 0.6202 and 0.4579 | Proliferation, H358 CypA high (- dox) ([1]; RMC-7977 100.00 nM): 94.8777 and 89.8025 | Proliferation, H358 CypA low (+ 0.1 µg/ml dox) ([1]; RMC-7977 100.00 nM): 7.141 and 7.102 | Proliferation, H358 CypA low (- dox) ([1]; RMC-7977 100.00 nM): 104.79 and 108.679 | Proliferation, H358 CypA high (+ 0.1 µg/ml dox) ([1]; RMC-7977 300.00 nM): 0.5256 and 0.2817 | Proliferation, H358 CypA high (- dox) ([1]; RMC-7977 300.00 nM): 83.7998 and 85.0113 | Proliferation, H358 CypA low (+ 0.1 µg/ml dox) ([1]; RMC-7977 300.00 nM): 5.455 and 5.338 | Proliferation, H358 CypA low (- dox) ([1]; RMC-7977 300.00 nM): 79.1522 and 100.975 | % Body Weight Change ([2]; NCI-H441 tumor bearing BALB/c nude mice, day 4, individual animals): -4.55% and -0.24% and 1.44% and 1.89% and -1.08% and 0.22% and -2.41% and 1.83% | % Body Weight Change ([2]; NCI-H441 tumor bearing BALB/c nude mice, day 7, individual animals): -9.19% and -1.70% and 0.68% and 1.75% and -4.40% and -1.88% and -16.62% and -2.26% | % Body Weight Change ([2]; NCI-H441 tumor bearing BALB/c nude mice, day 11, individual animals): -4.55% and -4.86% and 0.27% and 1.46% and -4.26% and -1.16% and -0.43% and 0.65% | % Body Weight Change ([2]; NCI-H441 tumor bearing BALB/c nude mice, day 14, individual animals): -3.50% and -2.87% and 1.04% and 3.87% and -4.31% and -0.18% and -2.76% and -1.00% | % Body Weight Change ([2]; NCI-H441 tumor bearing BALB/c nude mice, day 18, individual animals): -0.17% and 7.78% and -13.00% and 19.16% and -2.62% and 1.70% and -3.06% and 3.09% | % Body Weight Change ([2]; NCI-H441 tumor bearing BALB/c nude mice, day 21, individual animals): -1.14% and -0.19% and 3.16% and 1.56% and -3.51% and 3.31% and -2.50% and 1.35% | % Body Weight Change ([2]; NCI-H441 tumor bearing BALB/c nude mice, day 25, individual animals): -5.65% and 1.02% and 4.20% and 4.72% and -0.28% and 1.43% and -6.63% and 1.91% | % Body Weight Change ([2]; NCI-H441 tumor bearing BALB/c nude mice, day 28, individual animals): -1.90% and 1.90% and 4.11% and 4.06% and 0.28% and 2.82% and -8.01% and 4.78% | % Body Weight Change ([2]; PDAC G12D tumor bearing BALB/c nude mice, day 3, individual animals): -4.17% | % Body Weight Change ([2]; PDAC G12D tumor bearing BALB/c nude mice, day 7, individual animals): -4.17% | % Body Weight Change ([2]; PDAC G12D tumor bearing BALB/c nude mice, day 14, individual animals): -8.33% | % Body Weight Change ([2]; PDAC G12D tumor bearing BALB/c nude mice, day 17, individual animals): -8.33% | % Body Weight Change ([2]; PDAC G12D tumor bearing BALB/c nude mice, day 21, individual animals): -8.00% and 0.00% | % Body Weight Change ([2]; PDAC G12D tumor bearing BALB/c nude mice, day 24, individual animals): -8.00% | % Body Weight Change ([2]; PDAC G12D tumor bearing BALB/c nude mice, day 28, individual animals): 4.00% | effect on body weights ([2]; all 15 KRAS^G12X xenograft models, 10 mg kg^−1): minimal effect on body weights | tolerability ([2]; repeated daily administration at 10 mg kg^−1, NCI-H441 model): well tolerated | EC50 (KRAS WT): 77 nM | EC50 (KRAS^G12D): 176 nM | EC50 (KRAS^G12R): 123 nM | EC50 (KRAS^G12C): 31.8 nM | EC50 (KRAS^G12V): 44 nM
